Experimental data: patent publication US20240350494A1, “THERAPEUTIC MODULATION OF INTEGRINS” (Pliant Therapeutics, Inc., priority 2021, published 2024)
Entries after “also recorded” stand apart in the source; their conditions may differ.

What was measured:
[1] = system: Human bronchial epithelial cells; assay: LAP adhesion assay, normal human bronchial epithelial cells (express αVβ6); format: cell-based; conditions: cell index (electrical impedance), xCELLigence; FIG. 1A
Protocol: Two latency associated peptide (LAP) adhesion binding assays were devised using primary human lung cells, including normal (healthy) human bronchial epithelial cells and human lung fibroblasts (healthy and IPF).
Human bronchial epithelial cells are known to express αVβ6 integrin in culture. Human bronchial epithelial cells were prepared for the assay by dissociation with trypsin/EDTA and were then seeded at 20,000 cells per well on 96 well plates (ACEA Bioscience E-plate View, Acea Biosciences; San Diego, CA) previously coated with 5 μg/ml of recombinant human LAP (R&D Systems; Minneapolis, MN) and blocked with 4% bovine serum albumin. Cell index (electrical impedance) was measured to assess cell attachment/spreading every 3 minutes for 24 hours at 37° C./5% CO2 using the xCELLigence RTCA MP Instrument (Acea Biosciences; San Diego, CA).

[2] = system: Quantitative Lung Fibrosis (QLF); assay: Phase 2a trial in IPF, HRCT-based Quantitative Lung Fibrosis; format: in vivo, human; conditions: baseline to week 12, CT Protocol Population
Text: The exploratory endpoints of the trial measured changes in forced vital capacity (FVC), HRCT-based Quantitative Lung Fibrosis score (QLF), and selected biomarkers over 3 months of treatment.
FIG. 29 illustrates the Mean Percent Change in Quantitative Lung Fibrosis (the extent from baseline to week 12 in the CT Protocol Population), using High-Resolution Computed Tomography (HRCT) based Quantitative Lung Fibrosis (QLF) imaging.

[3] = Phase 2a trial in IPF, safety and tolerability; format: in vivo, human
pSMAD2:SMAD2 ratio = pSMAD2:SMAD2 ratio in BAL of healthy subjects (20 or 40 mg daily); format: in vivo, human; conditions: all subjects with Cmax above 700 ng/mL; Day 7; FIG. 6G
Protocol: In order to evaluate the change of pSMAD2 as a biomarker of TGF-β activity following administration of an integrin inhibitor, and to determine a therapeutically effective dosage and an effective blood plasma Cmax of the integrin inhibitor, healthy subjects were administered compound 5, a dual selective αVβ6/αVβ1-integrin inhibitor, and the corresponding Cmax levels and decrease in phosphorylation levels and were determined.
Healthy non-smoking adult males without history of lung disease were selected as subjects and were randomized into 4 cohorts. Broncoalevaolar lavage samples were obtained from all subjects 1 day prior to start of treatment. Cohorts 1 and 2 were administered 20 mg of a compound daily, wherein 3 subjects were administered the dual selective αVβ6/αVβ1-integrin inhibitor (compound 5) per every 1 subject receiving a placebo compound. Cohorts 3 and 4 were administered 40 mg of a compound daily, wherein 3 subjects were administered the dual selective αVβ6/αVβ1-integrin inhibitor (compound 5) per every 1 subject receiving a placebo compound. BAL samples and blood samples were taken from all subjects on Day −1 (baseline) and on Day 7 (end of treatment).

SMAD3 phosphorylation = assay: Murine bleomycin model, SMAD3 phosphorylation; format: in vivo, mice (C57BL/6); conditions: bleomycin day 0, oral gavage BID 14 days from day 7 at 1×, 5×, FIG. 2C
Text: It has been previously shown that inhibition of αVβ6 in the lung can be detected though measurement of phospho-SMAD (pSMAD) in alveolar macrophages. Alveolar macrophages are known to operate in a unique niche in the lung, distinct from interstitial macrophages. SMAD3 is a downstream target of the active TGF-β cytokine binding its receptor and in alveolar macrophages it is phosphorylated by homoeostatic levels of TGF-β. Accordingly, it was desirable to know whether inhibition of TGF-β activation using the disclosed compounds would result in reduced SMAD2 and SMAD3 phosphorylation.
Mice (C57BL/6) were divided into healthy (n=15), vehicle-treated (n=15), and test article-treated (n=15 per dose) groups. Mice in the vehicle and test article-treated groups were administered 3 U/kg of bleomycin (Teva Pharmaceuticals; North Wales, PA) via oropharyngeal aspiration while under anesthesia on day 0. Healthy animals were administered water in a similar fashion. Starting on day 7, mice in the control group were administered PBS vehicle, 130 μL, by oral gavage, BID for 14 days. Also starting on day 7, mice in the test group were administered compound 5 in PBS by oral gavage, BID for 14 days, at relative dosages of 1×, 2.5× and 5×. […] From day 14 through day 21, 9 of the 15 mice were administered ^2H2O for labeling. All mice were sacrificed on day 21 and tissues were collected. […]

[4] = Phase 2a trial in IPF, pharmacokinetics; format: in vivo, human
Text: Overall Summary of Safety Pharmacokinetics.

[5] = SAD/MAD first-in-human pharmacokinetics; format: in vivo; conditions: healthy subjects
Protocol: Healthy human subjects (N=85) were selected for single ascending dose (SAD) and multiple ascending dose (MAD) first-in-human studies. A solution for oral administration was prepared, containing 10 mg/mL of compound 5 in a 50:50 mixture of ORA-SWEET® SF (PERRIGO®, Allegan, Michigan) and sterile water for irrigation. Sufficient solution was administered orally to the subjects to provide between 15 mg/dose and 75 mg/dose of compound 5 in the SAD study and between 10 mg/dose and 40 mg/dose of compound 5 in the MAD study. Concentrations of compound 5 were measured in the subjects by obtaining a sample of plasma from each subject at desired intervals, and subjecting the plasma to liquid chromatography-mass spectrometry-mass spectrometry (LC-MS/MS), with quantification using a calibration curve determined from a range of solutions at standardized concentrations. The lower limit of quantitation (LLOQ) of the assay was 1 ng/mL and the calibration curve range was 1 to 500 ng/mL.

pSmad2/Smad2 = assay: Alveolar pSmad2/Smad2 in BAL, 80 mg and 160 mg QD (FIG. 10); format: in vivo, human; conditions: 80 mg and 160 mg QD (Part 1), p<0.0001
Protocol: Alveolar pSmad2/Smad2 percentage change from baseline at 24 h (Part 1: 80 mg and 160 mg). […] BAL—bronchoalveolar lavage; pSmad2/Smad2—ratio of phosphorylated Smad2 to total Smad2; QD—once daily.

[6] = of the 67 patients treated with Compound 5

With `COCCN(CCCCc1ccc2c(n1)NCCC2)CC[C@H](Nc1ncnc2ccccc12)C(=O)O` [Compound 5, (S)-4-((2-methoxyethyl)(4-(5,6,7,8-tetrahydro-1,8-naphthyridin-2-yl)butyl)amino)-2-(quinazolin-4-ylamino)butanoic acid] the “inhibition of normal bronchial epithelial cell adhesion to LAP” value [1] was “substantially inhibited”, the “Improvers < −2% QLF extent change, (%)” value ([2]; 40 mg (N = 15)) was 6.6% and the “Median, QLF extent change” value ([2]; 40 mg (N = 15)) was 1.50%. For the same compound, the “Stable [−2, 2%) QLF extent change, (%)” value ([2]; 40 mg (N = 15)) was 46.7%, the “Worse > 2% QLF extent change, (%)” value ([2]; 40 mg (N = 15)) was 46.7% and the “Improvers < −2% QLF extent change, (%)” value ([2]; 80 mg (N = 18)) was 11.1%. For the same compound, the “Mean Difference (SD), QLF extent” value ([2]; 80 mg (N = 18)) was 0.70%, the “Median, QLF extent change” value ([2]; 80 mg (N = 18)) was −0.45% and the “Stable [−2, 2%) QLF extent change, (%)” value ([2]; 80 mg (N = 18)) was 72.2%. The “Worse > 2% QLF extent change, (%)” value ([2]; 80 mg (N = 18)) was 16.7%, the “Improvers < −2% QLF extent change, (%)” value ([2]; 160 mg (N = 14)) was 28.6% and the “Mean Difference (SD), QLF extent” value ([2]; 160 mg (N = 14)) was 0.00%. For the same compound, the “Median, QLF extent change” value ([2]; 160 mg (N = 14)) was −0.10%, the “Stable [−2, 2%) QLF extent change, (%)” value ([2]; 160 mg (N = 14)) was 50.0% and the “Worse > 2% QLF extent change, (%)” value ([2]; 160 mg (N = 14)) was 21.4%. For the same compound, the “discontinuations due to adverse events” value ([3]; 12 weeks, 40-160 mg QD) was “no discontinuations due to adverse events; also recorded: No premature discontinuations due to AEs; also recorded: no participants discontinued Compound 5 due to TEAE”, the “most frequent TEAE” value ([3]; 12 weeks, 40-160 mg QD) was “diarrhea but only seen in patients on standard of care” and the “severity of most treatment emergent adverse events (TEAE)” value ([3]; 12 weeks, 40-160 mg QD) was “mild or moderate in severity”. The “treatment related deaths or drug related serious adverse events (SAE)” value ([3]; 12 weeks, 40-160 mg QD) was “No treatment related deaths or drug related serious adverse events (SAE) were reported; also recorded: No deaths or drug-related SAEs; also recorded: no treatment-emergent serious adverse events (SAEs) were observed; also recorded: no treatment related SAEs or deaths”, the tolerability ([3]; IPF patients, 40, 80, 160 mg once daily, 12 weeks) was “safe and well tolerated” and the “patients who completed 12 weeks of treatment, number” value [3, 6] was 65. The “patients who completed 12 weeks of treatment, proportion” value [3, 6] was 97%, the “reduction in pSMAD2:SMAD2 ratio in BAL compared to the placebo group” value (pSMAD2:SMAD2 ratio) was ≥ 50% and the “SMAD3 phosphorylation in lung tissue compared to vehicle-treated mice” value (SMAD3 phosphorylation) was “substantial, statistically significant dose-dependent reductions”. The “dose proportionality of plasma concentrations” value ([4]; IPF participants, 40-160 mg QD, sparse sampling) was “generally dose proportional increases; also recorded: increased approximately proportionally with dose”, the pharmacokinetic profile ([4]; IPF patients, 12-week treatment) was “favorable pharmacokinetic profile” and the “oral bioavailability and pharmacokinetics” value [5] was “good oral bioavailability and pharmacokinetics”. The “Alveolar pSmad2/Smad2 percentage change from baseline at 24 h vs. placebo” value (pSmad2/Smad2) was “statistically significant at both doses”.
